Source: PubChem BioAssay AID1259407 (Chemical Carcinogenesis Research Information System (CCRIS), 2018)
Calls of active or inactive are those of the source. No rule for the calls is given here.

Tested on: CCRIS mutagenicity, Ames/micronucleus/aberration tests
Experiment: CCRIS mutagenicity studies
[1] = Test System: AMES SALMONELLA TYPHIMURIUM, Strain/Indicator: TA97, Metabolic Activation: HAMSTER, LIVER, S-9, AROCLOR 1254 (10%), Method: PREINCUBATION
[2] = Test System: AMES SALMONELLA TYPHIMURIUM, Strain/Indicator: TA97, Metabolic Activation: NONE, Method: PREINCUBATION
[3] = Test System: AMES SALMONELLA TYPHIMURIUM, Strain/Indicator: TA97, Metabolic Activation: RAT, LIVER, S-9, AROCLOR 1254 (10%), Method: PREINCUBATION
[4] = Test System: AMES SALMONELLA TYPHIMURIUM, Strain/Indicator: TA98, Metabolic Activation: HAMSTER, LIVER, S-9, AROCLOR 1254 (10%), Method: PREINCUBATION
[5] = Test System: AMES SALMONELLA TYPHIMURIUM, Strain/Indicator: TA98, Metabolic Activation: NONE, Method: PREINCUBATION
[6] = Test System: AMES SALMONELLA TYPHIMURIUM, Strain/Indicator: TA98, Metabolic Activation: RAT, LIVER, S-9, AROCLOR 1254 (10%), Method: PREINCUBATION
[7] = Test System: AMES SALMONELLA TYPHIMURIUM, Strain/Indicator: TA100, Metabolic Activation: HAMSTER, LIVER, S-9, AROCLOR 1254 (10%), Method: PREINCUBATION
[8] = Test System: AMES SALMONELLA TYPHIMURIUM, Strain/Indicator: TA100, Metabolic Activation: NONE, Method: PREINCUBATION
[9] = Test System: AMES SALMONELLA TYPHIMURIUM, Strain/Indicator: TA100, Metabolic Activation: RAT, LIVER, S-9, AROCLOR 1254 (10%), Method: PREINCUBATION
[10] = Test System: AMES SALMONELLA TYPHIMURIUM, Strain/Indicator: TA1535, Metabolic Activation: HAMSTER, LIVER, S-9, AROCLOR 1254 (10%), Method: PREINCUBATION
[11] = Test System: AMES SALMONELLA TYPHIMURIUM, Strain/Indicator: TA1535, Metabolic Activation: HAMSTER, LIVER, S-9, AROCLOR 1254 (30%), Method: PREINCUBATION
[12] = Test System: AMES SALMONELLA TYPHIMURIUM, Strain/Indicator: TA1535, Metabolic Activation: NONE, Method: PREINCUBATION
[13] = Test System: AMES SALMONELLA TYPHIMURIUM, Strain/Indicator: TA1535, Metabolic Activation: RAT, LIVER, S-9, AROCLOR 1254 (10%), Method: PREINCUBATION
[14] = Test System: AMES SALMONELLA TYPHIMURIUM, Strain/Indicator: TA1535, Metabolic Activation: RAT, LIVER, S-9, AROCLOR 1254 (30%), Method: PREINCUBATION

SMILES	mutagenic call [1]	mutagenic call [2]	mutagenic call [3]	mutagenic call [4]	mutagenic call [5]	mutagenic call [6]	mutagenic call [7]	mutagenic call [8]	mutagenic call [9]	mutagenic call [10]	mutagenic call [11]	mutagenic call [12]	mutagenic call [13]	mutagenic call [14]	further results
Nc1cc(Cl)ccc1O	inactive; negative	inactive; negative	inactive; negative	inactive; negative	inactive; negative	inactive; negative	inactive; negative	inactive; negative	inactive; negative	active; positive	active; positive	inactive; negative	active; positive	inactive; negative	mutagenic call (End Point: In vitro chromosomal aberrations, Test System: Chinese hamster lung (CHL/IU) cells, Metabolic Activation: Rat, Liver, S9, Phenobarbital and 5,6-benzoflavone): active; positive (structural changes and ploidy). structural changes not dose related.; mutagenic call (Test System: AMES SALMONELLA TYPHIMURIUM, Strain/Indicator: TA97, Metabolic Activation: HAMSTER, LIVER, S-9, AROCLOR 1254 (30%), Method: PREINCUBATION): inactive; negative; mutagenic call (Test System: AMES SALMONELLA TYPHIMURIUM, Strain/Indicator: TA97, Metabolic Activation: RAT, LIVER, S-9, AROCLOR 1254 (30%), Method: PREINCUBATION): inactive; negative; mutagenic call (Test System: AMES SALMONELLA TYPHIMURIUM, Strain/Indicator: TA98, Metabolic Activation: RAT, LIVER, S-9, PHENOBARBITAL AND BETA-NAPHTHOFLAVONE, Method: PREINCUBATION): inactive; negative; mutagenic call (Test System: AMES SALMONELLA TYPHIMURIUM, Strain/Indicator: TA1535, Metabolic Activation: HAMSTER, LIVER, S-9, AROCLOR 1254 (5%), Method: PREINCUBATION): active; positive; mutagenic call (Test System: AMES SALMONELLA TYPHIMURIUM, Strain/Indicator: TA1535, Metabolic Activation: RAT, LIVER, S-9, AROCLOR 1254 (5%), Method: PREINCUBATION): active; positive; mutagenic call (Test System: AMES SALMONELLA TYPHIMURIUM, Strain/Indicator: TA1535, Metabolic Activation: RAT, LIVER, S-9, PHENOBARBITAL AND BETA-NAPHTHOFLAVONE, Method: PREINCUBATION): inactive; negative; mutagenic call (Test System: AMES SALMONELLA TYPHIMURIUM, Strain/Indicator: TA1537, Metabolic Activation: NONE, Method: PREINCUBATION): inactive; negative; mutagenic call (Test System: E. COLI, Strain/Indicator: WP2UVRA, Metabolic Activation: NONE, Method: PREINCUBATION): inactive; negative; mutagenic call (Test System: E. COLI, Strain/Indicator: WP2UVRA, Metabolic Activation: RAT, LIVER, S-9, PHENOBARBITAL AND BETA-NAPHTHOFLAVONE, Method: PREINCUBATION): inactive; negative
CCCCCCC(C)(C)C(=O)OCC1CO1 (centres undefined)	–	–	–	–	–	–	–	inactive; negative	–	–	active; positive	inactive; negative	–	active; positive	mutagenic call (Test System: AMES SALMONELLA TYPHIMURIUM, Strain/Indicator: TA100, Metabolic Activation: HAMSTER, LIVER, S-9, AROCLOR 1254 (30%), Method: PREINCUBATION): active; positive; mutagenic call (Test System: AMES SALMONELLA TYPHIMURIUM, Strain/Indicator: TA100, Metabolic Activation: RAT, LIVER, S-9, AROCLOR 1254 (30%), Method: PREINCUBATION): active; positive
O=C1NCCN1/N=C/c1ccc([N+](=O)[O-])o1	–	–	–	–	–	–	–	–	–	–	–	–	–	–	mutagenic call (Test System: AMES SALMONELLA TYPHIMURIUM, Strain/Indicator: TA98, Metabolic Activation: NONE): active; positive; mutagenic call (Test System: AMES SALMONELLA TYPHIMURIUM, Strain/Indicator: TA98, Metabolic Activation: S-9): inactive; negative; mutagenic call (Test System: AMES SALMONELLA TYPHIMURIUM, Strain/Indicator: TA100, Metabolic Activation: NONE): active; positive; mutagenic call (Test System: AMES SALMONELLA TYPHIMURIUM, Strain/Indicator: TA100, Metabolic Activation: S-9): active; positive
CN(C)c1cccc(O)c1	active; positive	inactive; negative	active; positive	active; positive	inactive; negative	active; positive	active; positive	inactive; negative	active; positive	inactive; negative	–	inactive; negative	inactive; negative	–	–
C[C@]12CCC(=O)C=C1C=C[C@@H]1[C@@H]2CC[C@@]2(C)[C@H]1CC[C@@]2(O)CCC(=O)O	–	–	–	–	–	–	–	–	–	–	–	–	–	–	mutagenic call (End Point: IN VITRO MICRONUCLEUS, Test System: HUMAN PERIPHERAL LYMPHOCYTES, Metabolic Activation: NONE): inactive; negative; mutagenic call (End Point: IN VITRO MICRONUCLEUS, Test System: HUMAN PRIMARY HEPATOCYTES (FEMALE), Metabolic Activation: NONE): inactive; negative; mutagenic call (End Point: IN VITRO MICRONUCLEUS, Test System: RAT PRIMARY HEPATOCYTES (MALE/FEMALE), Metabolic Activation: NONE): active; positive
Cc1c(C)c(N)c(C)c(C)c1N	–	–	–	–	–	–	–	–	–	–	–	–	–	–	mutagenic call (Test System: AMES SALMONELLA TYPHIMURIUM, Strain/Indicator: TA98, Metabolic Activation: NONE, Method: STANDARD PLATE): inactive; negative; mutagenic call (Test System: AMES SALMONELLA TYPHIMURIUM, Strain/Indicator: TA98, Metabolic Activation: RAT, LIVER, S-9, AROCLOR 1254, Method: STANDARD PLATE): inactive; negative; mutagenic call (Test System: AMES SALMONELLA TYPHIMURIUM, Strain/Indicator: TA100, Metabolic Activation: NONE, Method: STANDARD PLATE): inactive; negative; mutagenic call (Test System: AMES SALMONELLA TYPHIMURIUM, Strain/Indicator: TA100, Metabolic Activation: RAT, LIVER, S-9, AROCLOR 1254, Method: STANDARD PLATE): inactive; negative; mutagenic call (Test System: AMES SALMONELLA TYPHIMURIUM, Strain/Indicator: TA1535, Metabolic Activation: NONE, Method: STANDARD PLATE): inactive; negative; mutagenic call (Test System: AMES SALMONELLA TYPHIMURIUM, Strain/Indicator: TA1535, Metabolic Activation: RAT, LIVER, S-9, AROCLOR 1254, Method: STANDARD PLATE): inactive; negative; mutagenic call (Test System: AMES SALMONELLA TYPHIMURIUM, Strain/Indicator: TA1537, Metabolic Activation: NONE, Method: STANDARD PLATE): inactive; negative; mutagenic call (Test System: AMES SALMONELLA TYPHIMURIUM, Strain/Indicator: TA1537, Metabolic Activation: RAT, LIVER, S-9, AROCLOR 1254, Method: STANDARD PLATE): inactive; negative; mutagenic call (Test System: AMES SALMONELLA TYPHIMURIUM, Strain/Indicator: TA1538, Metabolic Activation: NONE, Method: STANDARD PLATE): inactive; negative; mutagenic call (Test System: AMES SALMONELLA TYPHIMURIUM, Strain/Indicator: TA1538, Metabolic Activation: RAT, LIVER, S-9, AROCLOR 1254, Method: STANDARD PLATE): inactive; negative
